Test results reported in article PMC5988656, “Phase I studies of AZD1208, a proviral integration Moloney virus kinase inhibitor in solid and haematological cancers” (British Journal of Cancer, 2018).

Tested on: patients with advanced solid tumours
Assay: Solid tumour dose-escalation study: safety and tolerability (AEs, DLTs)
Description: Conducted at two UK centres and one in Japan. Dose escalation followed a rolling six design.[14] Patients received a single dose on Day 1 during Cycle 0, followed by a 3-day washout period, after which multiple dosing was initiated. Cycle 1 was a 21-day period from the first dose of multiple dosing.
The CTCAE (version 4.0) was utilised to grade all AE events.
AEs were summarised by Medical Dictionary for Regulatory Activities (MedDRA) system organ class, MedDRA preferred term and CTCAE grade. Summary statistics of mean, median, standard deviation, minimum, maximum and number of observations were used.

Structure (SMILES): N[C@@H]1CCCN(c2c(/C=C3\SC(=O)NC3=O)cccc2-c2ccccc2)C1 [AZD1208]
- White blood cell count decreased (all-grade AE) (540 mg, n = 7): 2 (28.6) n (%)
- Patients requiring dose interruptions because of AEs (700 mg): 3 n
- Patients with CTCAE grade ≥3 AEs causally related to AZD1208 (700 mg (nausea, fatigue)): 1 n
- Anaemia (all-grade AE) (700 mg, n = 6): 3 (50.0) n (%)
- Constipation (all-grade AE) (700 mg, n = 6): 2 (33.3) n (%)
- Decreased appetite (all-grade AE) (700 mg, n = 6): 2 (33.3) n (%)
- Diarrhoea (all-grade AE) (700 mg, n = 6): 5 (83.3) n (%)
- Dry skin (all-grade AE) (700 mg, n = 6): 1 (16.7) n (%)
- Dyspnoea (all-grade AE) (700 mg, n = 6): 0 (0.0) n (%)
- Fatigue (all-grade AE) (700 mg, n = 6): 4 (66.7) n (%)
- GGT increased (all-grade AE) (700 mg, n = 6): 0 (0.0) n (%)
- Hyperglycaemia (all-grade AE) (700 mg, n = 6): 0 (0.0) n (%)
- Hypoalbuminaemia (all-grade AE) (700 mg, n = 6): 3 (50.0) n (%)
- Hypokalaemia (all-grade AE) (700 mg, n = 6): 1 (16.7) n (%)
- Hyponatraemia (all-grade AE) (700 mg, n = 6): 1 (16.7) n (%)
- Insomnia (all-grade AE) (700 mg, n = 6): 0 (0.0) n (%)
- Musculoskeletal chest pain (all-grade AE) (700 mg, n = 6): 1 (16.7) n (%)
- Nausea (all-grade AE) (700 mg, n = 6): 5 (83.3) n (%)
- Patients with any AE (all-grade AE) (700 mg, n = 6): 6 (100.0) n (%)
- Platelet count decreased (all-grade AE) (700 mg, n = 6): 1 (16.7) n (%)
- Pyrexia (all-grade AE) (700 mg, n = 6): 2 (33.3) n (%)
- Thrombocytopenia (all-grade AE) (700 mg, n = 6): 1 (16.7) n (%)
- Vomiting (all-grade AE) (700 mg, n = 6): 4 (66.7) n (%)
- White blood cell count decreased (all-grade AE) (700 mg, n = 6): 1 (16.7) n (%)
- Patients requiring dose interruptions because of AEs (800 mg): 2 n
- Patients with CTCAE grade ≥3 AEs causally related to AZD1208 (800 mg (fatigue, hyperglycaemia)): 3 n
- Tolerability (800 mg QD): not tolerated
- Abdominal pain (all-grade AE) (800 mg, n = 6): 0 (0.0) n (%)
- Anaemia (all-grade AE) (800 mg, n = 6): 2 (33.3) n (%)
- Constipation (all-grade AE) (800 mg, n = 6): 0 (0.0) n (%)
- DLT detail, action taken (800 mg, n = 6): Fatigue, drug interrupted; fatigue, drug interrupted
- Decreased appetite (all-grade AE) (800 mg, n = 6): 3 (50.0) n (%)
- Diarrhoea (all-grade AE) (800 mg, n = 6): 6 (100.0) n (%)
- Dry skin (all-grade AE) (800 mg, n = 6): 0 (0.0) n (%)
- Dyspnoea (all-grade AE) (800 mg, n = 6): 0 (0.0) n (%)
- Fatigue (all-grade AE) (800 mg, n = 6): 5 (83.3) n (%)
- GGT increased (all-grade AE) (800 mg, n = 6): 1 (16.7) n (%)
- Hyperglycaemia (all-grade AE) (800 mg, n = 6): 2 (33.3) n (%)
- Hypoalbuminaemia (all-grade AE) (800 mg, n = 6): 0 (0.0) n (%)
- Hypokalaemia (all-grade AE) (800 mg, n = 6): 1 (16.7) n (%)
- Hyponatraemia (all-grade AE) (800 mg, n = 6): 0 (0.0) n (%)
- Insomnia (all-grade AE) (800 mg, n = 6): 1 (16.7) n (%)
- Musculoskeletal chest pain (all-grade AE) (800 mg, n = 6): 0 (0.0) n (%)
- Nausea (all-grade AE) (800 mg, n = 6): 4 (66.7) n (%)
- Patients with any AE (all-grade AE) (800 mg, n = 6): 6 (100.0) n (%)
- Platelet count decreased (all-grade AE) (800 mg, n = 6): 1 (16.7) n (%)
- Pyrexia (all-grade AE) (800 mg, n = 6): 0 (0.0) n (%)
- Thrombocytopenia (all-grade AE) (800 mg, n = 6): 1 (16.7) n (%)
- Vomiting (all-grade AE) (800 mg, n = 6): 3 (50.0) n (%)
- White blood cell count decreased (all-grade AE) (800 mg, n = 6): 0 (0.0) n (%)
- Abdominal pain (all-grade AE) (Total N = 35): 8 (22.9) n (%)
- Anaemia (all-grade AE) (Total N = 35): 18 (51.4) n (%)
- Constipation (all-grade AE) (Total N = 35): 5 (14.3) n (%)
- Decreased appetite (all-grade AE) (Total N = 35): 15 (42.9) n (%)
- Diarrhoea (all-grade AE) (Total N = 35): 29 (82.9) n (%)
- Dry skin (all-grade AE) (Total N = 35): 7 (20.0) n (%)
- Dyspnoea (all-grade AE) (Total N = 35): 4 (11.4) n (%)
- Fatigue (all-grade AE) (Total N = 35): 17 (48.6) n (%)
- GGT increased (all-grade AE) (Total N = 35): 6 (17.1) n (%)
- Hyperglycaemia (all-grade AE) (Total N = 35): 8 (22.9) n (%)
- Hypoalbuminaemia (all-grade AE) (Total N = 35): 9 (25.7) n (%)
- Hypokalaemia (all-grade AE) (Total N = 35): 4 (11.4) n (%)
- Hyponatraemia (all-grade AE) (Total N = 35): 5 (14.3) n (%)
- Insomnia (all-grade AE) (Total N = 35): 4 (11.4) n (%)
- Musculoskeletal chest pain (all-grade AE) (Total N = 35): 4 (11.4) n (%)
- Nausea (all-grade AE) (Total N = 35): 26 (74.3) n (%)
- Patients with any AE (all-grade AE) (Total N = 35): 35 (100.0) n (%)
- Platelet count decreased (all-grade AE) (Total N = 35): 9 (25.7) n (%)
- Pyrexia (all-grade AE) (Total N = 35): 6 (17.1) n (%)
- Thrombocytopenia (all-grade AE) (Total N = 35): 5 (14.3) n (%)
- Vomiting (all-grade AE) (Total N = 35): 19 (54.3) n (%)
- White blood cell count decreased (all-grade AE) (Total N = 35): 9 (25.7) n (%)
- Patients with DLTs (all doses): Four
- AEs of grade ≥3, patients (all doses, 35 patients): 45.7%
- CTCAE grade ≥3 AEs causally related to AZD1208, patients (all doses, 35 patients): 28.6%
- CTCAE grade ≥3 GGT increase, patients (all doses, 35 patients): 8.6%
- CTCAE grade ≥3 abdominal pain, patients (all doses, 35 patients): 5.7%
- CTCAE grade ≥3 anaemia, patients (all doses, 35 patients): 5.7%
- CTCAE grade ≥3 fatigue, patients (all doses, 35 patients): 11.4%
- Diarrhoea causally related to AZD1208, patients (all doses, 35 patients): 68.6%
- Diarrhoea, patients (all doses, 35 patients): 82.9%
- Discontinued the study due to an AE, patients (all doses, 35 patients): 11.4%
- Dose interruptions because of AEs, patients (all doses, 35 patients): 45.7%
- Gastrointestinal disorders AEs, patients (all doses, 35 patients): 97.1%
- Nausea causally related to AZD1208, patients (all doses, 35 patients): 65.7%
- Nausea, patients (all doses, 35 patients): 74.3%
- Patients with ≥1 SAE (all doses, 35 patients): 22.9%
- SAE dyspnoea, patients (all doses, 35 patients): 5.7%
- SAE vomiting, patients (all doses, 35 patients): 5.7%
- Vomiting, patients (all doses, 35 patients): 54.3%
- Treatment-related changes in haematology, clinical chemistry, vital signs, ECG or physical findings (any patient): No clinically significant treatment-related changes
- Patients who died as a result of an AE (not considered AZD1208-related by the investigator): 2.9%
- Patients reporting treatment-related SAEs (one patient, three SAEs (vomiting, fatigue, general physical health deterioration)): 2.9%
- Doses tolerated as monotherapy (solid tumour study): up to 700 mg QD
- Maximum tolerated dose (MTD) (solid tumour study): could not be determined
